Results: patent US20240201203A1, “COMPOSITIONS AND METHODS FOR TREATING INDIVIDUALS WHO HAVE ONCOGENE-NEGATIVE CANCER” (priority 2021, published 2024)

Columns and labels:
[1] = system: Nf1, Rasa1, and Pten mutant oncogene-negative lung tumors; assay: Drug efficacy study in TC mice with oncogene-negative lung tumors (Tuba-seq, imaging, histology); format: in vivo, mouse; conditions: tumors from sgNf1/sgRasa1/sgPten vectors, capivasertib 100 mg/kg, RMC-4550 30 mg/kg, gavage, two weeks, 3.5 months after tumor initiation, vs vehicle
Procedure: For drug efficacy studies, TC mice (8-12 weeks old) were divided into 4 groups randomly. They received the vehicle, capivasertib (100 mg/kg, Med Chem Express), RMC-4550 (30 mg/kg, Med Chem Express), or a combination of both dissolved in 10% DMSO, 40% PEG, 5% Tween 80, and 45% PBS through a gavage needle. Mice were treated daily with drugs for eight days, and the treatment was stopped for two days for recovery, and it continued for two more days before the tissue harvest.
Tumors were initiated by intratracheal delivery of pooled or individual Lenti-sgRNA/Cre vectors. Barcoded Lenti-sgRNA/Cre vectors within each viral pool are indicated in each figure. […]
For DNA extraction from single dissected tumors to generate libraries for Tuba-seq, targeted sequencing of selected oncogenes, and whole-exome sequencing, we used Qiagen AllPrep DNA/RNA Micro kit. […] Three cell lines (100,000 to 500,000 cells each) were added to each mouse lung sample before lysis to enable the calculation of the absolute number of neoplastic cells in each tumor from the number of sgID-BC reads. […] The concentration and quality of the purified libraries were determined using the Agilent High Sensitivity DNA kit (Agilent Technologies, 5067-4626) on the Agilent 2100 Bioanalyzer (Agilent Technologies, G2939BA). […]
The FASTQ files were parsed to identify the sgID and barcode (BC) for each read. […]

[2] = system: RAS and PI3K signaling; assay: Immunoblot of oncogene-negative cell lines treated with drugs; format: cell-based, mouse; conditions: 3 oncogene-negative cell lines, 10 uM, 24 hours
Procedure: (§1) Cell lines were generated from tumors initiated in Trp53^flox/flox; TC BL6 mice four months after transduction with Lenti-sgNf1-sgRasa1-sgPten/Cre. After dissociation of tumors (described below), cells were cultured in the regular media.
For apoptosis and proliferation assays, 3×10^5 cells were seeded into 6-well plates and allowed to adhere overnight in regular growth media and cultured in the presence or absence 10 uM of Capivasertib, RMC-4550, or a combination of both drugs. After 24 hours, the protein was extracted using RIPA lysis buffer (Thermo Fisher Scientific, 89900) and proteinase/phosphatase inhibitor cocktail (Thermo Fisher Scientific, 78442). Protein concentration was measured using BCA protein assay kit (Thermo Fisher Scientific, 23250). Proteins (30 ug from each sample) were separated by SDS-PAGE and immunoblotted and transferred to polyvinyl difluoride (PVDF) membranes (BioRad, 162-0177) according to standard protocols. Membranes were immunoblotted with antibodies against phosphor-ERK (Cell Signaling Technology, 4370), ERK (Cell Signaling Technology, 9102), phosphor-AKT (Thermo Fisher Scientific, 44-621G), AKT (Cell Signaling Technology, 4691), phospho-S6 (Cell Signaling Technology, 4858), S6 (Cell Signaling Technology, 2217), and HSP90 (BD Bioscience, 610418). […]

[3] = system: Nf1, Rasa1, and Pten-mutant lung adenocarcinoma cell-lines; assay: Clonogenic growth assay and Loewe synergy, mouse oncogene-negative cell lines; format: cell-based; conditions: three mouse cell lines, various doses, four days, crystal violet
Procedure: as §1
For clonogenic assays, cells were seeded in triplicate into 24-well plates (4000 cells per well) and allowed to adhere overnight in regular growth media. Cells were then cultured in the absence or presence of the drug as indicated on each figure panel in complete media for 4 days. Growth media with or without drugs was replaced every 2 days. The remaining cells were stained with 0.5% crystal violet in 20% methanol and photographed using a digital scanner. Relative growth was quantified by densitometry after extracting crystal violet from the stained cells using 100% methanol.
Drug synergism was analyzed using SynergyFinder (https://synergyfinder.fimm.fi) web application. The degree of combination synergy, or antagonism, is quantified by comparing the observed drug combination response against the expected response, calculated using Loewe's model that assumes no interaction between drugs.

| SMILES | total tumor burden (Tuba-seq analysis) [1] | PI3K signaling (immunoblot) [2] | overall growth of oncogene-negative cell lines [3] | RAS signaling (immunoblot) [2] |
| --- | --- | --- | --- | --- |
| NC1(C(=O)N[C@@H](CCO)c2ccc(Cl)cc2)CCN(c2ncnc3[nH]ccc23)CC1 [capivasertib] | ineffective | reduced | decreased the overall growth of three oncogene-negative RAS/PI3K cell lines in a dose-dependent manner | – |
| Cc1nc(N2CCC3(CC2)CO[C@@H](C)[C@H]3N)c(CO)nc1-c1cccc(Cl)c1Cl [RMC-4550] | reduced the total tumor burden significantly | – | decreased the overall growth of three oncogene-negative RAS/PI3K cell lines in a dose-dependent manner | reduced |
